Data published in US8936916B2, “Polypeptides for microbial detection” (3M Innovative Properties Company, priority 2008, dated 2015).
Ends that are not written are not given here. * marks the point of attachment. Myristoyl = CCCCCCCCCCCCCC(=O)*

Experiment: Permeabilization of DPPC liposomes containing glucose oxidase by phosphorylated dermatoxin (absorbance at 538 nm)
Assay type: biochemical
Protocol: DPPC liposomes containing 5 mg/mL glucose oxidase were prepared as described in Example 2. Glucose oxidase activity was measured in a coupled enzyme reaction with horseradish peroxidase as described in Example 2. The various solutions were quickly added to each of the wells of a microplate using a multichannel pipette and the reactions were started (at T=0 hours) with the addition to the wells of a solution containing glucose and 4-AAP.
The ability of the phosphorylated dermatoxin to open liposomes in the presence of phosphatase was tested by preparing a developing solution as described in Example 2. One hundred-fifty microliters of the developing solution was placed in each well of a 96-well microplate. To each column in the plate was added 20 μL of TES buffer containing one of the following concentrations of unpurified dermatoxin: 3.3 mg/mL, 3.3×10^−1 mg/mL, 3.3×10^−2 mg/mL, 3.3×10^−3 mg/mL, 3.3×10^−4 mg/mL, 3.3×10^−5 mg/mL, 3.3×10^−6 mg/mL, or 3.3×10^−7 mg/mL. Negative control wells contained TES buffer with no dermatoxin. Positive control wells buffer contained TES buffer with Triton X-100. Ten-microliter aliquots of the following concentrations of DPPC liposomes (containing 5 mg/mL glucose oxidase) were added to wells in duplicate rows: 0.1 mg lipid/mL, 0.02 mg lipid/mL, 0.004 mg lipid/mL, or plain buffer. To one of the duplicate rows was added 20 μL of 2.5 mg/mL alkaline phosphatase in TES. The other duplicate row received 20 μL of TES buffer. Thus the final dermatoxin concentration in the well varied from […], and the final lipid concentration in the well ranged from 0.005 mg lipid/mL to 2.0×10^−4 mg lipid/mL.
The absorbance was recorded at 538 nm on a SpectraMax M5 plate reader (Molecular Devices, Sunnyvale, Calif.) after two hours incubation at room temperature, and also after overnight incubation (approximately 18 hours). Since the absorbance of several wells was saturated, the overnight samples were diluted 1:10 with 50 mmol TES and the absorbance of the diluted samples was measured.

SLGSFLKGVGTTLASVGKVVSDQFGKLLQAGQ (Myristoyl-SLGSFLKGVGTTLASVGKVVSDQFGKLLQAGQ; also: phosphorylated) [phosphorylated dermatoxin, fully phosphorylated dermatoxin, unpurified crude preparation]
Absorbance at 538 nm (cytolytic peptide activity) (18 hrs (d), 1:10-diluted sample, lipid conc. 0.004, dermatoxin mass 3.3 × 10^−9 mg, without phosphatase): 0.054 absorbance units | Absorbance at 538 nm (cytolytic peptide activity) (18 hrs (d), 1:10-diluted sample, lipid conc. 0.02, dermatoxin mass 3.3 × 10^−5 mg, with phosphatase): 0.262 absorbance units | Absorbance at 538 nm (cytolytic peptide activity) (18 hrs (d), 1:10-diluted sample, lipid conc. 0.02, dermatoxin mass 3.3 × 10^−5 mg, without phosphatase): 0.247 absorbance units | Absorbance at 538 nm (cytolytic peptide activity) (18 hrs (d), 1:10-diluted sample, lipid conc. 0.02, dermatoxin mass 3.3 × 10^−6 mg, with phosphatase): 0.231 absorbance units | Absorbance at 538 nm (cytolytic peptide activity) (18 hrs (d), 1:10-diluted sample, lipid conc. 0.02, dermatoxin mass 3.3 × 10^−6 mg, without phosphatase): 0.145 absorbance units | Absorbance at 538 nm (cytolytic peptide activity) (18 hrs (d), 1:10-diluted sample, lipid conc. 0.02, dermatoxin mass 3.3 × 10^−7 mg, with phosphatase): 0.084 absorbance units | Absorbance at 538 nm (cytolytic peptide activity) (18 hrs (d), 1:10-diluted sample, lipid conc. 0.02, dermatoxin mass 3.3 × 10^−7 mg, without phosphatase): 0.072 absorbance units | Absorbance at 538 nm (cytolytic peptide activity) (18 hrs (d), 1:10-diluted sample, lipid conc. 0.02, dermatoxin mass 3.3 × 10^−8 mg, with phosphatase): 0.075 absorbance units | Absorbance at 538 nm (cytolytic peptide activity) (18 hrs (d), 1:10-diluted sample, lipid conc. 0.02, dermatoxin mass 3.3 × 10^−8 mg, without phosphatase): 0.054 absorbance units | Absorbance at 538 nm (cytolytic peptide activity) (18 hrs (d), 1:10-diluted sample, lipid conc. 0.02, dermatoxin mass 3.3 × 10^−9 mg, with phosphatase): 0.072 absorbance units | Absorbance at 538 nm (cytolytic peptide activity) (18 hrs (d), 1:10-diluted sample, lipid conc. 0.02, dermatoxin mass 3.3 × 10^−9 mg, without phosphatase): 0.054 absorbance units | Absorbance at 538 nm (cytolytic peptide activity) (18 hrs (d), 1:10-diluted sample, lipid conc. 0.1, dermatoxin mass 3.3 × 10^−5 mg, with phosphatase): 1.045 absorbance units | Absorbance at 538 nm (cytolytic peptide activity) (18 hrs (d), 1:10-diluted sample, lipid conc. 0.1, dermatoxin mass 3.3 × 10^−5 mg, without phosphatase): 0.846 absorbance units | Absorbance at 538 nm (cytolytic peptide activity) (18 hrs (d), 1:10-diluted sample, lipid conc. 0.1, dermatoxin mass 3.3 × 10^−6 mg, with phosphatase): 0.785 absorbance units | Absorbance at 538 nm (cytolytic peptide activity) (18 hrs (d), 1:10-diluted sample, lipid conc. 0.1, dermatoxin mass 3.3 × 10^−6 mg, without phosphatase): 0.413 absorbance units | Absorbance at 538 nm (cytolytic peptide activity) (18 hrs (d), 1:10-diluted sample, lipid conc. 0.1, dermatoxin mass 3.3 × 10^−7 mg, with phosphatase): 0.095 absorbance units | Absorbance at 538 nm (cytolytic peptide activity) (18 hrs (d), 1:10-diluted sample, lipid conc. 0.1, dermatoxin mass 3.3 × 10^−7 mg, without phosphatase): 0.145 absorbance units | Absorbance at 538 nm (cytolytic peptide activity) (18 hrs (d), 1:10-diluted sample, lipid conc. 0.1, dermatoxin mass 3.3 × 10^−8 mg, with phosphatase): 0.076 absorbance units | Absorbance at 538 nm (cytolytic peptide activity) (18 hrs (d), 1:10-diluted sample, lipid conc. 0.1, dermatoxin mass 3.3 × 10^−8 mg, without phosphatase): 0.060 absorbance units | Absorbance at 538 nm (cytolytic peptide activity) (18 hrs (d), 1:10-diluted sample, lipid conc. 0.1, dermatoxin mass 3.3 × 10^−9 mg, with phosphatase): 0.075 absorbance units | Absorbance at 538 nm (cytolytic peptide activity) (18 hrs (d), 1:10-diluted sample, lipid conc. 0.1, dermatoxin mass 3.3 × 10^−9 mg, without phosphatase): 0.058 absorbance units | Absorbance at 538 nm (cytolytic peptide activity) (18 hrs, lipid conc. 0, dermatoxin mass 3.3 × 10^−5 mg, with phosphatase): 0.153 absorbance units | Absorbance at 538 nm (cytolytic peptide activity) (18 hrs, lipid conc. 0, dermatoxin mass 3.3 × 10^−5 mg, without phosphatase): 0.147 absorbance units | Absorbance at 538 nm (cytolytic peptide activity) (18 hrs, lipid conc. 0, dermatoxin mass 3.3 × 10^−6 mg, with phosphatase): 0.149 absorbance units | Absorbance at 538 nm (cytolytic peptide activity) (18 hrs, lipid conc. 0, dermatoxin mass 3.3 × 10^−6 mg, without phosphatase): 0.139 absorbance units | Absorbance at 538 nm (cytolytic peptide activity) (18 hrs, lipid conc. 0, dermatoxin mass 3.3 × 10^−7 mg, with phosphatase): 0.148 absorbance units | Absorbance at 538 nm (cytolytic peptide activity) (18 hrs, lipid conc. 0, dermatoxin mass 3.3 × 10^−7 mg, without phosphatase): 0.132 absorbance units | Absorbance at 538 nm (cytolytic peptide activity) (18 hrs, lipid conc. 0, dermatoxin mass 3.3 × 10^−8 mg, with phosphatase): 0.149 absorbance units | Absorbance at 538 nm (cytolytic peptide activity) (18 hrs, lipid conc. 0, dermatoxin mass 3.3 × 10^−8 mg, without phosphatase): 0.131 absorbance units | Absorbance at 538 nm (cytolytic peptide activity) (18 hrs, lipid conc. 0, dermatoxin mass 3.3 × 10^−9 mg, with phosphatase): 0.150 absorbance units | Absorbance at 538 nm (cytolytic peptide activity) (18 hrs, lipid conc. 0, dermatoxin mass 3.3 × 10^−9 mg, without phosphatase): 0.133 absorbance units | Absorbance at 538 nm (cytolytic peptide activity) (18 hrs, lipid conc. 0.004, dermatoxin mass 3.3 × 10^−5 mg, with phosphatase): 0.494 absorbance units | Absorbance at 538 nm (cytolytic peptide activity) (18 hrs, lipid conc. 0.004, dermatoxin mass 3.3 × 10^−5 mg, without phosphatase): 0.499 absorbance units | Absorbance at 538 nm (cytolytic peptide activity) (18 hrs, lipid conc. 0.004, dermatoxin mass 3.3 × 10^−6 mg, with phosphatase): 0.494 absorbance units | Absorbance at 538 nm (cytolytic peptide activity) (18 hrs, lipid conc. 0.004, dermatoxin mass 3.3 × 10^−6 mg, without phosphatase): 0.410 absorbance units | Absorbance at 538 nm (cytolytic peptide activity) (18 hrs, lipid conc. 0.004, dermatoxin mass 3.3 × 10^−7 mg, with phosphatase): 0.287 absorbance units | Absorbance at 538 nm (cytolytic peptide activity) (18 hrs, lipid conc. 0.004, dermatoxin mass 3.3 × 10^−7 mg, without phosphatase): 0.169 absorbance units | Absorbance at 538 nm (cytolytic peptide activity) (18 hrs, lipid conc. 0.004, dermatoxin mass 3.3 × 10^−8 mg, with phosphatase): 0.240 absorbance units | Absorbance at 538 nm (cytolytic peptide activity) (18 hrs, lipid conc. 0.004, dermatoxin mass 3.3 × 10^−8 mg, without phosphatase): 0.141 absorbance units | Absorbance at 538 nm (cytolytic peptide activity) (18 hrs, lipid conc. 0.004, dermatoxin mass 3.3 × 10^−9 mg, with phosphatase): 0.243 absorbance units | Absorbance at 538 nm (cytolytic peptide activity) (18 hrs, lipid conc. 0.004, dermatoxin mass 3.3 × 10^−9 mg, without phosphatase): 0.139 absorbance units | Absorbance at 538 nm (cytolytic peptide activity) (18 hrs, lipid conc. 0.02, dermatoxin mass 3.3 × 10^−5 mg, with phosphatase): 2.003 absorbance units | Absorbance at 538 nm (cytolytic peptide activity) (18 hrs, lipid conc. 0.02, dermatoxin mass 3.3 × 10^−5 mg, without phosphatase): 1.833 absorbance units | Absorbance at 538 nm (cytolytic peptide activity) (18 hrs, lipid conc. 0.02, dermatoxin mass 3.3 × 10^−6 mg, with phosphatase): 1.856 absorbance units | Absorbance at 538 nm (cytolytic peptide activity) (18 hrs, lipid conc. 0.02, dermatoxin mass 3.3 × 10^−6 mg, without phosphatase): 1.013 absorbance units | Absorbance at 538 nm (cytolytic peptide activity) (18 hrs, lipid conc. 0.02, dermatoxin mass 3.3 × 10^−7 mg, with phosphatase): 0.469 absorbance units | Absorbance at 538 nm (cytolytic peptide activity) (18 hrs, lipid conc. 0.02, dermatoxin mass 3.3 × 10^−7 mg, without phosphatase): 0.315 absorbance units | Absorbance at 538 nm (cytolytic peptide activity) (18 hrs, lipid conc. 0.02, dermatoxin mass 3.3 × 10^−8 mg, with phosphatase): 0.357 absorbance units | Absorbance at 538 nm (cytolytic peptide activity) (18 hrs, lipid conc. 0.02, dermatoxin mass 3.3 × 10^−8 mg, without phosphatase): 0.149 absorbance units | Absorbance at 538 nm (cytolytic peptide activity) (18 hrs, lipid conc. 0.02, dermatoxin mass 3.3 × 10^−9 mg, with phosphatase): 0.336 absorbance units | Absorbance at 538 nm (cytolytic peptide activity) (18 hrs, lipid conc. 0.02, dermatoxin mass 3.3 × 10^−9 mg, without phosphatase): 0.143 absorbance units | Absorbance at 538 nm (cytolytic peptide activity) (18 hrs, lipid conc. 0.1, dermatoxin mass 3.3 × 10^−5 mg, without phosphatase): 3.720 absorbance units | Absorbance at 538 nm (cytolytic peptide activity) (18 hrs, lipid conc. 0.1, dermatoxin mass 3.3 × 10^−6 mg, without phosphatase): 3.294 absorbance units | Absorbance at 538 nm (cytolytic peptide activity) (18 hrs, lipid conc. 0.1, dermatoxin mass 3.3 × 10^−7 mg, with phosphatase): 0.530 absorbance units | Absorbance at 538 nm (cytolytic peptide activity) (18 hrs, lipid conc. 0.1, dermatoxin mass 3.3 × 10^−7 mg, without phosphatase): 0.974 absorbance units | Absorbance at 538 nm (cytolytic peptide activity) (18 hrs, lipid conc. 0.1, dermatoxin mass 3.3 × 10^−8 mg, with phosphatase): 0.349 absorbance units | Absorbance at 538 nm (cytolytic peptide activity) (18 hrs, lipid conc. 0.1, dermatoxin mass 3.3 × 10^−8 mg, without phosphatase): 0.200 absorbance units | Absorbance at 538 nm (cytolytic peptide activity) (18 hrs, lipid conc. 0.1, dermatoxin mass 3.3 × 10^−9 mg, with phosphatase): 0.358 absorbance units | Absorbance at 538 nm (cytolytic peptide activity) (18 hrs, lipid conc. 0.1, dermatoxin mass 3.3 × 10^−9 mg, without phosphatase): 0.177 absorbance units | Permeabilization of the liposomes in the presence versus absence of phosphatase (all wells except the highest concentration of the crude preparation): more permeabilization
